From PubChem BioAssay AID810 (The Scripps Research Institute Molecular Screening Center, 2007)
pIC50: −log10 of the molar value. Calls of active or inactive are those of the source. How the calls were made is not given here.

Target: Focal adhesion kinase 1 (Homo sapiens) (UniProt Q05397)
Test: FAK kinase inhibitor potency, dose response, biochemical (AID 810)
Conditions: Recombinant FAK kinase activity inhibition assay

Focal adhesion kinase 1 (Homo sapiens), sequence (Q05397 whole entry, looked up): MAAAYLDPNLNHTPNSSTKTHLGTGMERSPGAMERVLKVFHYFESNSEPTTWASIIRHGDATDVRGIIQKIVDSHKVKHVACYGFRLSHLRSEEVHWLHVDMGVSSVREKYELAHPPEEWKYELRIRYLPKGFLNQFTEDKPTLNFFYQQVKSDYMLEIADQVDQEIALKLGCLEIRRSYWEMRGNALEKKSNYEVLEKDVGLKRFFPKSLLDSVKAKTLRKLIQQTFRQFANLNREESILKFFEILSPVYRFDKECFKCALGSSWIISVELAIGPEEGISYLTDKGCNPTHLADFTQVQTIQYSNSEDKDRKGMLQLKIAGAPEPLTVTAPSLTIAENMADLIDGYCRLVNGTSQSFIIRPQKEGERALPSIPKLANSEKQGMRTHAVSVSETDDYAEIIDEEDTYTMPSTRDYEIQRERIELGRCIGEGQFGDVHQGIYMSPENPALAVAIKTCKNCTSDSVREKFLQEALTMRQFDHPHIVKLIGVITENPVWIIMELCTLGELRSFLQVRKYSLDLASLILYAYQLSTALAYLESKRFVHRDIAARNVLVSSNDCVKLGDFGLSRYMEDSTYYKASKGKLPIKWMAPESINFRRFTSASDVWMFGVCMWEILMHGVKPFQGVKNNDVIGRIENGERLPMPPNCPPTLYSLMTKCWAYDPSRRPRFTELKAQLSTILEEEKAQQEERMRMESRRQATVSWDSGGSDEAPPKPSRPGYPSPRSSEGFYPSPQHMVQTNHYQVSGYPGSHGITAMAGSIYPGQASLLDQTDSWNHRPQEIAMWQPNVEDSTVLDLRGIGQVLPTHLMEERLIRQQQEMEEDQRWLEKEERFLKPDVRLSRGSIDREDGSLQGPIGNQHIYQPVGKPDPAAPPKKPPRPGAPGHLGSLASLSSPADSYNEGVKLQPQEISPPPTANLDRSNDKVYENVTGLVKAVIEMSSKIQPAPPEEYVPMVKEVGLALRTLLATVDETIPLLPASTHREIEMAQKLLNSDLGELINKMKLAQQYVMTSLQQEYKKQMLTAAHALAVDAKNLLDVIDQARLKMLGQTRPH

Row | SMILES | IC50 | pIC50
1 | CCOC(=O)c1sc2c(c1C)C(c1cccs1)C1=C(CCCC1=O)N2 (stereo unspecified) | > 70 µM (inactive) | 
2 | COc1cc(N=Cc2c(O)[nH]c3ccccc23)cc(OC)c1OC |  | 5.50
3 | O=[N+]([O-])c1cc(/C=N\Nc2nccs2)ccc1O |  | 5.24
4 | CCOC(=O)C1=C(c2ccccc2)OC(N)=C(C#N)C1C1CCCCC1 (stereo unspecified) | > 70 µM (inactive) | 
5 | COC(=O)C1=C(C)NC2=C(C(=O)CC(c3cccs3)C2)C1c1ccsc1 (stereo unspecified) | > 70 µM (inactive) | 
6 | O=c1c(/C=N/O)c(Nc2ccccc2)nc2ccccn12 | inactive | 
7 | CCOC(=O)c1cccc2c1-c1ccccc1/C2=N/O | inactive | 
8 | CCOCCOC(=O)C1=C(C)NC2=C(C(=O)CC(c3cccs3)C2)C1c1ccsc1 (stereo unspecified) | > 70 µM (inactive) | 
9 | COCCOC(=O)C1=C(C)NC2=C(C(=O)CC(c3cccs3)C2)C1c1ccsc1 (stereo unspecified) | > 70 µM (inactive) | 

Continued, values first:

Row | IC50 | pIC50 | SMILES
10 |  | 5.03 | COC(=O)c1cccc2c1-c1ccccc1/C2=N/O
11 | inactive |  | N#Cc1ccccc1/C=N/Nc1nc(-c2ccccc2)c2cc(Cl)ccc2n1
12 | inactive |  | CN1CCc2c(sc3ncn4nc(-c5ccccc5O)nc4c23)C1
13 | > 70 µM (inactive) |  | Cc1nn2c(c1-c1ccccc1)NC1=C(C(=O)CCC1)C2c1ccccc1 (stereo unspecified)
14 |  | 5.25 | O=C1C(c2ccnc3ccccc23)=C(O)c2ccccc21
15 | > 70 µM (inactive) |  | CCOC(=O)C1=C(c2ccccc2)OC(N)=C(C#N)C1c1cccs1 (stereo unspecified)
16 | inactive |  | COc1cccc(CN2CC(O)=C(c3nc(-c4ccc(Cl)cc4)cs3)C2=N)c1
